Laboratory results: patent US5010204A, “Acetazolamide-related compounds, process for their preparation, and pharmaceutical composition containing the same” (Instituto Chimico Internazionale Dr. Giuseppe Rende S.r.l., priority 1988, dated 1991)
Converted amounts (≈) assume the structure as drawn.

Tests used:
[1] = in words; cited from earlier work
[2] = in words; cited from earlier work; remark: listed apart in the source
[3] = test system: ocular pressure in rabbit; test: decrease in ocular pressure in rabbit, transient ocular hypertension model (5% glucose infusion), topical instillation; assay type: in vivo; design: endoocular pressure, 10' OS / endoocular pressure, 20' OC / endoocular pressure, 40' OS: unit not given beside the values; details: for endoocular pressure, 10' OS / endoocular pressure, 20' OS / endoocular pressure, 40' OS: left eye (diluent-treated fellow eye, control); for endoocular pressure, 10' OS / endoocular pressure, 10' OD: 10 minutes; for endoocular pressure, 20' OS / endoocular pressure, 20' OC: 20 minutes; for endoocular pressure, 40' OS / endoocular pressure, 40' OD: 40 minutes; for endoocular pressure, 10' OD / endoocular pressure, 20' OC / endoocular pressure, 40' OD: right eye (drug-treated, 2 drops of 2% solution)
Experimental: In vivo experiments were carried out on the compounds of the present invention, and, amongst the others, those experiments whose results are reported in the following Table 2, concerning the decrease in the ocular pressure in rabbit.
For determining such results a transient ocular hypertension model was employed, said hypertension being obtained in rabbit through rapid venous infusion of suitable volumes (20 ml/kg) of 5% glucose solution.
Albino rabbits from the same farm in New Zealand were employed, whose weights were between 2,500 e 3,000 g. Each treatment was carried out on a group of six animals.
The drug was prepared in a phosphate buffer water solution at pH 7.5. The solution was made isotonic with sodium chloride and the possibility of microbial contamination was prevented through the addition of benzalkonium chloride. In case of compounds of low solubility, a dispersing suspension of the finely divided compound in methyl cellulose was prepared. The solution (or the suspension) was instilled into the right eye of each animal in the amount of 2 drops of 2% solution, at an interval of 2 minutes from one another. The left eye was treated with an equal volume of diluent.
The measurements of pressure were performed while animals were in superficial local anaesthesia (0.4% benoxinate), by means of a McKay-Marg electronic pressure gage, at the times -30', 0', 10', 20', 40'.
The following table reports the endoocular pressure measured after 10, 20, and 40 minutes both in the right and in the left eye: the higher the difference in the ocular pressure between the treated eye and the untreated eye, the higher the efficiency of the drug considered.

[4] = solubility in buffer pH 7.6; assay type: physicochemical; details: aqueous buffer
[5] = biological target: carbonic anhydrase; test: in vitro inhibition of carbonic anhydrase (enzymic activity), CO2-electrode potentiometric analysis; assay type: biochemical; details: samples at 10^-7, 3×10^-7, 6×10^-7 and 10^-6 molar; read-out: I50 (molar concentration that gives a 50% reduction of enzymic activity)
From the text: For determining the in vitro activities, samples were employed at molar concentrations of 10^-7, 3×10^-7, 6×10^-7, and 10^-6, and the results given in Table 1 were obtained by CO2 -electrode potentiometric analysis.

[6] = stability of the product (hydrolysis), observed on preparation; assay type: physicochemical; details: residue after reaction with liquid ammonia

| SMILES | water solubility [1] | absorption when instilled in the eye [2] | endoocular pressure, 10' OS [3] | endoocular pressure, 20' OS [3] | endoocular pressure, 40' OS [3] | endoocular pressure, 10' OD [3] | endoocular pressure, 20' OC [3] | endoocular pressure, 40' OD [3] | solubility [4] | IC50 [5] | stability [6] |
| --- | --- | --- | --- | --- | --- | --- | --- | --- | --- | --- | --- |
| CC(=O)Nc1nnc(S(N)(=O)=O)s1 [ACETAZOLAMIDE, 5-acetamido-2-sulfonamido-1,3,4-thiadiazole] | practically insoluble | poor absorption | – | – | – | – | – | – | – | – | – |
| COC(=O)CCC(=O)Nc1nnc(S(N)(=O)=O)s1 [RENDE 023, 5-methylsuccinoylamino-2-sulfonamido-1,3,4-thiadiazole] | – | – | 25.5 | 20.17 | 16.67 | 25.33 | 19.5 | 16.5 | 740 µg/mL (≈ 2.51 mM) | 550 nM | – |
| COC(=O)CCC(=O)N=c1sc(S(N)(=O)=O)nn1C [RENDE 024, 5-Methylsuccinoylamino-4-methyl-2-sulfonamido-1,3,4-thiadiazole] | – | – | 25.83 | 21.5 | 17.83 | 24.67 | 20.33 | 17.33 | 2250 µg/mL (≈ 7.3 mM) | 450 nM | – |
| NCCCCC(=O)Nc1nnc(S(N)(=O)=O)s1 [RENDE 027, 5-(5-Aminovaleroylamino)-2-sulfonamido-1,3,4-thiadiazole] | – | – | 26.17 | 21.5 | 17.33 | 24.0 | 20.83 | 16.83 | 208 µg/mL (≈ 0.745 mM) | 440 nM | – |
| CCOC(=O)CCC(=O)Nc1nnc(S(N)(=O)=O)s1 [RENDE 029, 5-Ethylsuccinoylamino-2-sulfonamido-1,3,4-thiadiazole] | – | – | 25.67 | 20.67 | 17.67 | 20.33 | 17.33 | 15.67 | 2760 µg/mL (≈ 8.95 mM) | – | – |
| CCCCCOC(=O)CCC(=O)Nc1nnc(S(N)(=O)=O)s1 [RENDE 032, 5-Pentylsuccinoylamino-2-sulfonamido-1,3,4-thiadiazole] | – | – | 24.5 | 21.33 | 18.83 | 22.67 | 20.0 | 17.83 | 470 µg/mL (≈ 1.34 mM) | 390 nM | – |
| CC(C)COC(=O)CCC(=O)Nc1nnc(S(N)(=O)=O)s1 [RENDE 034, 5-Isobutylsuccinoylamino-2-sulfonamido-1,3,4-thiadiazole] | – | – | 25.67 | 21.17 | 17.17 | 21.5 | 19.0 | 16.67 | 1240 µg/mL (≈ 3.69 mM) | 370 nM | – |
| CCCCCOC(=O)CCC(=O)N=c1sc(S(N)(=O)=O)nn1C [RENDE 035, 5-Pentylsuccinoylamino-4-methyl-2-sulfonamido-1,3,4-thiadiazole] | – | – | 25.17 | 22.0 | 18.0 | 24 | 20.67 | 17.83 | 535 µg/mL (≈ 1.47 mM) | 307 nM | – |
| NS(=O)(=O)c1nnc(NC(=O)CCC(=O)O)s1 [RENDE 037, 5-succinoylamino-2-sulfonamido-1,3,4-thiadiazolic acid] | – | – | 26.0 | 21.67 | 19.0 | 19.33 | 17.17 | 15.67 | 28700 µg/mL (≈ 102 mM) | – | – |
| NS(=O)(=O)c1nnc(NC(=O)CCC(=O)OCC(F)(F)F)s1 [Rende 039, 5-Trifluoroethylsuccinoylamino-2-sulfonamido-1,3,4-thiadiazole] | – | – | – | – | – | – | – | – | – | – | very unstable and becomes very easily hydrolysed |
